# In patent publication US11116847B2, “Methylene carbamate linkers for use with targeted-drug conjugates” (Seagen Inc., priority 2013, dated 2021):
# Marks after values point to notes of the source that are not given here.
# How the values were obtained:
# [1] = test system: Type B-1 β-glucuronidase (bovine liver); test: Release of free drug or model drug from NAC-conjugates after glucuronidase activation of the Self-immolative Assembly Unit; assay type: biochemical; conditions: NAC-conjugate corresponding to the named model drug-linker compound (N-acetyl cap replaced by maleimide Stretcher quenched with N-acetyl-cysteine)
# Description: Release of free drug from the NAC-7.7 conjugate derived from the Drug-Linker Compound of Example 7 was evaluated in the following manner: An enzyme stock was prepared by dissolving Type B-1 β-glucuronidase (bovine liver, 1,644,000 units/g solid) in pH 5 100 mM sodium acetate buffer to a working concentration of 0.5 mg/mL. Five microliters of 8 mM drug-linker stock of compound 7.7 was added to 12.5 μL DMSO, 26.3 μL of phosphate-buffered saline, and 6.75 μL of 100 mM N-acetylcysteine. The quenched linker was then diluted with 0.45 mL enzyme stock. The enzymatic reaction was then incubated at 37 C, with multiple time points taken at 1, 10, 20, and 40 minutes. Each time point sample consisted of 20 μL reaction diluted in 5 volumes ice cold methanol and cooled to −20 C until all the samples were withdrawn. The samples were then centrifuged at 12,000 g for 5 minutes and 20 μL of supernatant was analyzed by UPLC-MS. After 20 minutes of enzyme digestion the drug-linker was completely consumed. By 40 minutes, the majority of the material was free drug, indicating effectively complete drug release from the linker system.
# Releases of stand-in “free drugs” from NAC conjugates incorporating the Drug-Linker moieties from Example 8 were also studied. Those compounds were prepared by replacing the N-acetyl capping group with N-3-(propionoyl)-maleimide, which introduces a maleimide Stretcher Unit precursor, in the amino intermediates used for the preparation of model drug linker compounds 8.23-8.30. The maleimide moieties are then quenched with N-acetyl-cysteine as previously described for the preparation of NAC-7.7. The NAC-conjugates derived from the amino intermediates of Example 8 have the generalized structure of
# [drawing 194] wherein T* is the oxygen or sulfur heteroatom from the hydroxyl or sulfhydryl functional group of the primary alcohol or thiol-containing compound or the oxygen heteroatom from the hydroxyl functional group of the secondary or tertiary alcohol-containing compound or from the phenolic-containing compound of Table 3.
# [2] = In vitro stability of drug-linker / model drug-linker compounds to spontaneous hydrolysis of the methylene carbamate unit (LC/MS); assay type: physicochemical; conditions: for Relative Degradation Half-life Observed by LC/MS: 0.1M PBS; for Relative Degradation Half-life Observed by LC/MS / drug-linker degradation: pH 7.4, at 37° C.; for stability to spontaneous hydrolysis when R is dimethylaminoethyl instead of ethyl / degradation / stability to spontaneous hydrolysis: 0.1 M phosphate buffered saline; for stability to spontaneous hydrolysis when R is dimethylaminoethyl instead of ethyl / degradation / stability to spontaneous hydrolysis / comparative hydrolytic stability: pH 7.4, 37° C.; for stability to spontaneous hydrolysis when R is dimethylaminoethyl instead of ethyl: 7 days, compared with 8.26; for degradation / stability to spontaneous hydrolysis: tested every 24 h for 7 days by LC/MS; for drug-linker degradation: after 14 da incubation in 0.1 M PBS; for comparative hydrolytic stability: PBS, 8.26 compared with 6.4, 5.6 compared with model compound (8.23)
# Description: General procedure for testing Drug-Linker stability: Final N-acetyl products of Example 8 were dissolved in 1 mL 0.1 M phosphate buffered saline, pH 7.4, in a vial at 37° C. LC/MS samples were prepared by adding 2 μL aliquots of incubated compound solution to 100 μL of MeOH in an HPLC vial. Each conjugate was tested every 24 h for 7 days.
# For evaluation of in vitro stability of Compound 7.7 this Drug-Linker compound was converted to its N-acetylcysteine conjugate (NAC-7.7), which provide a model LDC with NAC serving as a surrogate for a targeting antibody Ligand Unit. For that purpose eight microliters of a 8 mM DMSO stock of Drug-Linker Compound was diluted in phosphate-buffered saline (0.39 mL). The maleimide moiety in each Drug-Linker Compound was then quenched with N-acetylcysteine (0.8 μL, 100 mM stock), and the material was stored in a 37° C. incubator. Aliquots were drawn at various time points out to 14 days and analyzed by UPLC-MS for drug-linker integrity.
# Stability testing was conducted as in Example 9.
# L540cy = test: In vitro cytotoxic activity of ADCs; assay type: cell-based; conditions: Table 6; L540cy CD30+ CD70 (low)
# Description: (§1) The targeting antibody ligands cAC10 and h1F6 are described in U.S. Pat. […] cAC10-1006 and hF16-1006, referenced in the following tables, is the chimeric AC10 antibody and the humanized F16 antibody, respectively, conjugated to monomethyl auristatin E (MMAE) at its N terminus via a carbamate functional group to a val-cit-PABA self-immolative moiety having formula XVIII and was used as a control. The resultant ADCs were tested against multiple cell lines to determine in vitro activity, the results from which are summarized in Tables 5 and 6.
# Caki-1 = test: In vitro cytotoxic activity of ADCs; assay type: cell-based; conditions: Table 6; Caki-1 CD70+
# Description: as §1
# 786-0 = test: In vitro cytotoxic activity of ADCs; assay type: cell-based; conditions: Table 6; 786-0 CD70+
# Description: as §1
# Karpas 299 = test: In vitro cytotoxic activity of ADCs; assay type: cell-based; conditions: Table 6; Karpas 299 CD30+ CD70−
# Description: as §1
Molecule,Time to 100% Release [1],Relative Degradation Half-life Observed by LC/MS [2],degradation / stability to spontaneous hydrolysis [2],other results
"CC(=O)Nc1cc(COC(=O)N(CCN(C)C)COC(C)(C)Cc2ccccc2)ccc1O[C@@H]1O[C@H](C(=O)O)[C@@H](O)[C@H](O)[C@H]1O [Compound 8.31, (2S,3S,4S,5R,6S)-6-(2-acetamido-4-((((2-(dimethylamino)ethyl)(((2-methyl-1-phenylpropan-2-yl)oxy)methyl)carbamoyl)oxy)methyl)phenoxy)-3,4,5-trihydroxytetrahydro-2H-pyran-2-carboxylic acid]",15 min,None Observed,,
"CCN(COCCc1ccccc1)C(=O)OCc1ccc(O[C@@H]2O[C@H](C(=O)O)[C@@H](O)[C@H](O)[C@H]2O)c(NC(C)=O)c1 [Compound 8.25, (2S,3S,4S,5R,6S)-6-(2-acetamido-4-(((ethyl(phenethoxymethyl)carbamoyl)oxy)methyl)phenoxy)-3,4,5-trihydroxytetrahydro-2H-pyran-2-carboxylic acid]",15 min,170 h,suitable stability,stability to spontaneous hydrolysis when R is dimethylaminoethyl instead of ethyl [2]: same excellent stability
CCN(CO[C@H]1C2[C@H]3O[C@H]3[C@H]3C4=C(CC[C@]3(C)[C@@]23O[C@H]3[C@@H]2O[C@]12C(C)C)C(=O)OC4)C(=O)OCc1ccc(O[C@@H]2OC(C(=O)O)[C@@H](O)[C@H](O)C2O)c(NC(=O)CCNC(=O)CCN2C(=O)C=CC2=O)c1 (some centres unmarked) [Compound 4.5],,None Observed,,drug-linker degradation [2]: No indication of drug-linker degradation
"CCN(CSCCc1ccccc1)C(=O)OCc1ccc(O[C@@H]2O[C@H](C(=O)O)[C@@H](O)[C@H](O)[C@H]2O)c(NC(C)=O)c1 [Compound 8.29, (2S,3S,4S,5R,6S)-6-(2-acetamido-4-(((ethyl((phenethylthio)methyl)carbamoyl)oxy)methyl)phenoxy)-3,4,5-trihydroxytetrahydro-2H-pyran-2-carboxylic acid]",40 min,None Observed,no sign of degradation,
"CC(=O)Nc1cc(COC(=O)N(CCN(C)C)COCCc2ccccc2)ccc1O[C@@H]1O[C@H](C(=O)O)[C@@H](O)[C@H](O)[C@H]1O [Compound 8.30, (2S,3S,4S,5R,6S)-6-(2-acetamido-4-((((2-(dimethylamino)ethyl)(phenethoxymethyl)carbamoyl)oxy)methyl)phenoxy)-3,4,5-trihydroxytetrahydro-2H-pyran-2-carboxylic acid]",15 min,None Observed,,
"COCCOCCOCCOCCOCCOCCOCCOCCN(COC(C)Cc1ccccc1)C(=O)OCc1ccc(O[C@@H]2O[C@H](C(=O)O)[C@@H](O)[C@H](O)[C@H]2O)c(NC(C)=O)c1 (stereo partly drawn) [Compound 8.32, (2S,3S,4S,5R,6S)-6-(2-acetamido-4-(3-oxo-4-(((1-phenylpropan-2-yl)oxy)methyl)-2,7,10,13,16,19,22,25,28-nonaoxa-4-azanonacosyl)phenoxy)-3,4,5-trihydroxytetrahydro-2H-pyran-2-carboxylic acid]",15 min,None Observed,no signs of degradation,
"CCN(COC(C)Cc1ccccc1)C(=O)OCc1ccc(O[C@@H]2O[C@H](C(=O)O)[C@@H](O)[C@H](O)[C@H]2O)c(NC(C)=O)c1 (stereo partly drawn) [Compound 8.26, (2S,3S,4S,5R,6S)-6-(2-acetamido-4-(((ethyl(((-phenylpropan-2-yl)oxy)methyl)carbamoyl)oxy)methyl)phenoxy)-3,4,5-trihydroxytetrahydro-2H-pyran-2-carboxylic acid]",45 min,None Observed,no signs of degradation,comparative hydrolytic stability [2]: increase stability
"CCN(COc1cccc2ccccc12)C(=O)OCc1ccc(O[C@@H]2O[C@H](C(=O)O)[C@@H](O)[C@H](O)[C@H]2O)c(NC(C)=O)c1 [Compound 8.28, (2S,3S,4S,5R,6S)-6-(2-acetamido-4-(((ethyl((naphthalen-1-yloxy)methyl)carbamoyl)oxy)methyl)phenoxy)-3,4,5-trihydroxytetrahydro-2H-pyran-2-carboxylic acid]",25 min,None Observed,excellent stability,
CO[C@H]1C[C@@H]2CC[C@@H](C)[C@@](O)(O2)C(=O)C(=O)N2CCCC[C@H]2C(=O)O[C@H]([C@@H](C)C[C@H]2CC[C@@H](OCCOCNC(=O)OCc3ccc(NC(=O)[C@H](CCCNC(N)=O)NC(=O)[C@@H](NC(=O)CCN4C(=O)C=CC4=O)C(C)C)cc3)[C@H](OC)C2)CC(=O)[C@H](C)/C=C(\C)[C@@H](O)[C@@H](OC)C(=O)[C@H](C)C[C@H](C)/C=C/C=C/C=C/1C [Compound 5.6],,170 h,,comparative hydrolytic stability [2]: even better hydrolytic stability; drug-linker degradation [2]: No indication of drug-linker degradation
"CCN(COC(C)(C)Cc1ccccc1)C(=O)OCc1ccc(O[C@@H]2O[C@H](C(=O)O)[C@@H](O)[C@H](O)[C@H]2O)c(NC(C)=O)c1 [Compound 8.27, (2S,3S,4S,5R,6S)-6-(2-acetamido-4-(((ethyl(((2-methyl-1-phenylpropan-2-yl)oxy)methyl)carbamoyl)oxy)methyl)phenoxy)-3,4,5-trihydroxytetrahydro-2H-pyran-2-carboxylic acid]",15 min,170 h,suitable stability,stability to spontaneous hydrolysis when R is dimethylaminoethyl instead of ethyl [2]: same excellent stability
C=CC[C@@H]1/C=C(\C)C[C@H](C)C[C@H](OC)[C@H]2O[C@@](O)(C(=O)C(=O)N3CCCC[C@H]3C(=O)O[C@H](/C(C)=C/C3CC[C@@H](OCNC(=O)OCc4ccc(NC(=O)[C@H](CCCNC(N)=O)NC(=O)[C@@H](NC(=O)CCN5C(=O)C=CC5=O)C(C)C)cc4)[C@H](OC)C3)[C@H](C)[C@@H](O)CC1=O)[C@H](C)C[C@@H]2OC (some centres unmarked) [Compound 6.4],,None Observed,,"comparative hydrolytic stability [2]: acceptable stability; drug-linker degradation [2]: No indication of drug-linker degradation; half-life ([2]; phosphate buffered saline, 0.1 M PBS buffer, pH 7.4 at 37° C.): 10 h"
"h1F6-1.3: h1F6 antibody (targets CD70+ cells) conjugated to auristatin E Drug-Linker compound 1.3 with MAC unit (conjugate, chains of the INN, looked up, auristatin E drug-linker 1.3 with MAC unit, h1F6 antibody (targets CD70+ cells) conjugated to auristatin E Drug-Linker compound 1.3 with MAC unit) VH: QVQLVQSGAEVKKPGASVKVSCKASGYTFTNYGMNWVRQAPGQGLKWMGWINTYTGEPTYADAFKGRVTMTRDTSISTAYMELSRLRSDDTAVYYCARDYGDYGMDYWGQGTTVTVSS VL: DIVMTQSPDSLAVSLGERATINCRASKSVSTSGYSFMHWYQQKPGQPPKLLIYLASNLESGVPDRFSGSGSGTDFTLTISSLQAEDVAVYYCQHSREVPWTFGQGTKVEIK",,,,IC50 (L540cy): >1000* ng/mL; IC50 (Caki-1): 0.019 µg/mL; IC50 (786-0): >1000** ng/mL; IC50 (Karpas 299): >1 µg/mL
